Test results as given in the NIST ThermoML archive (doi:10.1021/je050294+).
Numbers after ± are expanded uncertainties.

Settings: 101.33 kPa, Liquid; for speed of sound: Linear variable-path acoustic interferometer

mass density (283.15 K) | speed of sound (283.15 K) | mass density (298.15 K) | speed of sound (298.15 K) | mass density (313.15 K) | speed of sound (313.15 K) | Compound
817.48 ± 0.23 kg/m3 | 1292.2 ± 1.4 m/s | 806.17 ± 0.23 kg/m3 | 1240.7 ± 1.4 m/s | 794.51 ± 0.24 kg/m3 | 1191.4 ± 1.4 m/s | CCCCO [butan-1-ol]
815.11 ± 0.59 kg/m3 | 1266.6 ± 1.7 m/s | 803 ± 0.6 kg/m3 | 1212.4 ± 1.7 m/s | 790.06 ± 0.61 kg/m3 | 1158 ± 1.7 m/s | CCC(C)O (stereo not drawn) [butan-2-ol]
878.97 ± 0.55 kg/m3 | 1355.9 ± 1.8 m/s | 866.99 ± 0.55 kg/m3 | 1295 ± 1.8 m/s | 854.89 ± 0.56 kg/m3 | 1237.4 ± 1.7 m/s | C=C1CCC2CC1C2(C)C (stereo not drawn) [β-pinene]
